{
  "source": "patent US20070270350A1",
  "about": "“Methods and Compositions for the Prevention and Treatment of Inflammatory Diseases or Conditions” (MUSC FOUNDATION FOR RESEARCH DEVELOPMENT, priority 2003, published 2007)",
  "key": {"iNOS [1]": {"test_system": "iNOS", "experiment": "LPS/IFN-induced NO production and iNOS expression in C6 glioma cells", "assay_type": "cell-based, rat", "details": "D-PDMP 10, 25, 50 μM, 0.5 hr pretreatment", "experimental": "C6 rat glioma cells obtained from ATCC were maintained in Dulbecco's modified Eagle's medium (DMEM) (GIBCO, CA) containing 10% fetal bovine serum (FBS) (GIBCO) and 10 ? g/ml gentamicin. All the cultured cells were maintained at 37° C. in 5% CO2/95% air. At 80% confluency, the cells were incubated with serum free DMEM medium for 24 h prior to the incubation with LPS/IFN ? and other chemicals. Assay for NO production. Cells were cultured in 12-well plastic tissue culture plates. After the appropriate treatment, production of NO was determined by an assay of the culture supernatant for nitrite (Green et al., 1982). Briefly, 100 μl of culture supernatant was allowed to react with 100 μl of Griess reagent. The optical density of the assay samples was measured spectrophotometrically at 570 nm. Nitrite concentrations were calculated from a standard curve derived from the reaction of NaNO2 in fresh media. Western Blot Analysis. […] The protein concentration of samples was determined with the detergent compatible protein assay reagent (Bio-Rad Laboratories, CA) using bovine serum albumin (BSA) as the standard. Sample was boiled for 3 min with 0.1 volumes of 10% O-mercaptoethanol and 0.5% bromophenol blue mix. Fifty μg of total cellular protein was resolved by electrophoresis in 8 or 12% polyacrylamide gels, electro-transferred to polyvinylidene difluoride (PVDF) filter and blocked with Tween 20 containing Tris-buffered saline [TBST; 10 mM Trizma base (pH 7.4), 1% Tween 20, and 150 mM NaCl] with 5% skim milk. After incubation with antiserum against iNOS (BD PharMingen, CA), or hRas (Upstate Biotechnology, CA), or phospho-specific MAPK (p42/44) (Signal Transduction), in PVDF buffer for 2 h at room temperature, the filters were washed 3 times with TBST buffer and then incubated with horseradish peroxidase conjugated anti-rabbit or mouse IgG for 1 h. The membranes were autoradiographed by using ECL-plus (Amersham Pharmacia Biotech) after washing with TBST buffer. RT-PCR amplification. […] PCR amplification was conducted in 25 ? l of reaction mixture with 1.0 ? l of cDNA, […] and under the manufacturer's Taq polymerase conditions (Takara, […] Shuzo Co. Ltd, Japan). The sequence of primers used for PCR amplification are as follows; iNOS, (Forward-[NT], Reverse-[NT]), GalT-2 (Forward-[NT], Reverse-[NT]), GAPDH (Forward-[NT], Reverse-[NT])."}, "SCI rats": {"test_system": "SCI rats", "assay_type": "in vivo"}, "iNOS [2]": {"test_system": "iNOS", "experiment": "LPS/IFN-induced NO production and iNOS gene expression in primary astrocytes", "assay_type": "cell-based, rat", "details": "D-PDMP 0, 10, 25, 50 μM, 0.5 h pretreatment"}, "small GTPase Ras": {"test_system": "small GTPase Ras", "experiment": "Quantification of Ras activation (GST-Raf-1 Ras binding domain)", "assay_type": "cell-based, rat", "details": "D-PDMP 50 μM pretreatment; LPS/IFN 5 mins", "experimental": "Quantification of Ras Activation. After stimulation, primary astrocytes in 6 well plates were washed with PBS and lysed in membrane lysis buffer (MLB; 0.5 ml of 25 mM HEPES, pH7.5, 150 mM NaCl, 1% Igepal CA-630, 0.25% sodium deoxycholate, 10% glycerol, 10 mM MgCl2, 1 mM EDTA, 25 mM NaF, 1 mM of sodium orthovanadate, and EDTA free Complete™ protease inhibitor cocktail). After centrifugation (5,000×g) at 4° C. for 5 min, supernatant was used for Ras activation assay. One hundred μg of supernatant was used for binding with agarose conjugated Ras-binding domain (RBD) of Raf-1 which was expressed in BL21 (Invitrogen) Escherichia coli strain transformed by pGEX-2T-GST-RBD in the presence of 0.1 mM of IPTG as described previously (Herrmann et al., 1995). The binding reaction was performed at 4° C. for 30 min in MLB. Following washing with MLB three times, Ras-RBD complex were denatured by adding of 2×SDS sample buffer. Ras protein was identified by western immunoblot analysis with Ras antibodies from Upstate Biotechnology."}, "[3]": {"details": "D-PDMP 20 mg/kg, 24 hrs following injury"}},
  "note": "“Also recorded” adds a separate entry of the source.",
  "data": [
    {"smiles": "CCCCCCCCCC(=O)NC(CN1CCOCC1)C(O)c1ccccc1.Cl", "note": "[D-PDMP, D-threo-1-Phenyl-2-decanoylamino-3-morpholino-1-propanol HCl]", "values": [
      {"measurement": "LPS/IFN induced NO production", "setting": "iNOS [1]", "value": "inhibited"},
      {"measurement": "iNOS protein and mRNA levels", "setting": "iNOS [1]", "value": "inhibited"},
      {"measurement": "iNOS mRNA and protein expression at the site of injury", "setting": "SCI rats; D-PDMP 20 mg/Kg i.p. within 10 minutes following SCI, 12 hrs", "value": "markedly suppresses; also recorded: significantly lower"},
      {"measurement": "GFAP expression (immunofluorescence, lesion epicenter)", "setting": "SCI rats; [3]", "value": "significantly reduced"},
      {"measurement": "iNOS expression (immunofluorescence, lesion epicenter)", "setting": "SCI rats; [3]", "value": "significantly reduced"},
      {"measurement": "SCI induced white matter vacuolization and tissue necrosis (H&E)", "setting": "SCI rats; D-PDMP treated SCI rats", "value": "inhibited"},
      {"measurement": "apoptosis of neurons and other cells (TUNEL/NeuN)", "setting": "SCI rats; D-PDMP treated SCI rats", "value": "protection against apoptosis"},
      {"measurement": "demyelinization (LFB staining)", "setting": "SCI rats; D-PDMP treated SCI rats", "value": "attenuated"},
      {"measurement": "adverse effect on neuronal survival", "setting": "SCI rats; D-PDMP treated sham operated animals", "value": "no adverse effect"},
      {"measurement": "production of nitric oxide (NO)", "setting": "iNOS [2]; LPS/IFN 1 μg/ml, 10 U/ml, 24 hrs", "value": "dose dependent decrease"},
      {"measurement": "mRNA and protein levels of iNOS", "setting": "iNOS [2]; LPS/IFN, mRNA 6 hrs, protein 24 hrs", "value": "dose dependent decrease"},
      {"measurement": "LPS/IFN mediated activation of Ras", "setting": "small GTPase Ras", "value": "reduced"}
    ]}
  ]
}
